Source: ChEMBL document CHEMBL1201862, “PubChem BioAssay data set” (2004)
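Growth conditions: 96-well plates. Treatment: test compound, 48 hours, 5 concentrations. Analysis: linear interpolation between bracketing concentrations; unreached endpoints set to highest concentration. Here, GI50 denotes the concentration required for 50% inhibition of growth.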 Activity calls are given as the source filed them. Rule as the data show it: active = GI50 up to about 1.1 µM and inactive = higher.

Assays:
Test in all cases: growth of human tumour cells (NCI), 48 h
NCI-H226 = system: NCI-H226
RPMI-8226 = system: RPMI-8226
SK-OV-3 = system: SK-OV-3
HCC 2998 = system: HCC 2998
PC-3 = system: PC-3
HOP-92 = system: HOP-92
SN12C = system: SN12C
COLO 205 = system: COLO 205
786-0 = system: 786-0
ACHN = system: ACHN
IGROV-1 = system: IGROV-1
Hs-578T = system: Hs-578T
SK-MEL-5 = system: SK-MEL-5
OVCAR-5 = system: OVCAR-5
CAKI-1 = system: CAKI-1
MOLT-4 = system: MOLT-4
HT-29 = system: HT-29
U-251 = system: U-251
SR = system: SR
NCI/ADR-RES = system: NCI/ADR-RES
OVCAR-3 = system: OVCAR-3
RXF 393 = system: RXF 393
SF-268 = system: SF-268
UO-31 = system: UO-31
MDA-MB-435 = system: MDA-MB-435
T47D = system: T47D
M14 = system: M14
K562 = system: K562
SNB-75 = system: SNB-75
OVCAR-8 = system: OVCAR-8
HOP-62 = system: HOP-62
NCI-H522 = system: NCI-H522
Malme-3M = system: Malme-3M
LOX IMVI = system: LOX IMVI
HCT-15 = system: HCT-15
HCT-116 = system: HCT-116
SK-MEL-2 = system: SK-MEL-2
SF-295 = system: SF-295
MCF7 = system: MCF7
MDA-MB-231 = system: MDA-MB-231
A498 = system: A498
A549 = system: A549
SW-620 = system: SW-620
KM12 = system: KM12
HL-60 = system: HL-60
NCI-H460 = system: NCI-H460
UACC-62 = system: UACC-62
TK-10 = system: TK-10
SF-539 = system: SF-539
CCRF-CEM = system: CCRF-CEM
EKVX = system: EKVX
UACC-257 = system: UACC-257
SK-MEL-28 = system: SK-MEL-28
MDA-N = system: MDA-N
NCI-H23 = system: NCI-H23
SNB-19 = system: SNB-19
BT-549 = system: BT-549
DU-145 = system: DU-145
OVCAR-4 = system: OVCAR-4
DLD-1 = system: DLD-1
XF498 = system: XF498
SNB-78 = system: SNB-78
DMS-273 = system: DMS-273
DMS-114 = system: DMS-114
LXFL 529 = system: LXFL 529
KM-20L2 = system: KM-20L2

With O=C1OC(C2Cc3ccc4c(c3C2=O)CCC4)c2ccccc21 (configuration not stated) the GI50 (NCI-H226) was 26.1 µM (inactive), the GI50 (RPMI-8226) was 25.3 µM (inactive) and the GI50 (SK-OV-3) was > 100 µM (inactive). The GI50 (HCC 2998) was 37.4 µM (inactive), the GI50 (PC-3) was 30.5 µM (inactive) and the GI50 (HOP-92) was 56.2 µM (inactive). For the same compound, the GI50 (SN12C) was 36 µM (inactive), the GI50 (COLO 205) was 20.7 µM (inactive) and the GI50 (786-0) was 40.7 µM (inactive). The GI50 (ACHN) was 38.2 µM (inactive), the GI50 (IGROV-1) was 82.4 µM (inactive) and the GI50 (Hs-578T) was 36.1 µM (inactive). For the same compound, the GI50 (SK-MEL-5) was 43.1 µM (inactive), the GI50 (OVCAR-5) was 85.9 µM (inactive) and the GI50 (CAKI-1) was > 100 µM (inactive). The GI50 (MOLT-4) was 30.9 µM (inactive), the GI50 (HT-29) was 52.8 µM (inactive) and the GI50 (U-251) was 38.8 µM (inactive). For the same compound, the GI50 (SR) was 38.8 µM (inactive), the GI50 (NCI/ADR-RES) was 48.2 µM (inactive) and the GI50 (OVCAR-3) was 28.4 µM (inactive). The GI50 (RXF 393) was 37.7 µM (inactive), the GI50 (SF-268) was 42.9 µM (inactive) and the GI50 (UO-31) was 45.4 µM (inactive). The GI50 (MDA-MB-435) was 40.5 µM (inactive), the GI50 (T47D) was 54.6 µM (inactive) and the GI50 (M14) was 51.1 µM (inactive). For the same compound, the GI50 (K562) was 43.3 µM (inactive), the GI50 (SNB-75) was 46 µM (inactive) and the GI50 (OVCAR-8) was 56.9 µM (inactive). The GI50 (HOP-62) was > 100 µM (inactive), the GI50 (NCI-H522) was > 100 µM (inactive) and the GI50 (Malme-3M) was 94.4 µM (inactive). For the same compound, the GI50 (LOX IMVI) was 34.9 µM (inactive), the GI50 (HCT-15) was 39.1 µM and the GI50 (HCT-116) was 45.6 µM (inactive). For the same compound, the GI50 (SK-MEL-2) was 64.9 µM (inactive), the GI50 (SF-295) was 59.6 µM (inactive) and the GI50 (MCF7) was 50.1 µM (inactive). For the same compound, the GI50 (MDA-MB-231) was > 100 µM (inactive), the GI50 (A498) was 60.5 µM (inactive) and the GI50 (A549) was 50 µM (inactive). The GI50 (SW-620) was 54.5 µM (inactive), the GI50 (KM12) was 29.7 µM (inactive) and the GI50 (HL-60) was 27.4 µM (inactive). For the same compound, the GI50 (NCI-H460) was 50.9 µM (inactive), the GI50 (UACC-62) was 42.2 µM (inactive) and the GI50 (TK-10) was > 100 µM (inactive). The GI50 (SF-539) was 28.2 µM (inactive), the GI50 (CCRF-CEM) was 46.9 µM (inactive) and the GI50 (EKVX) was 51.2 µM (inactive). The GI50 (UACC-257) was 46.8 µM (inactive), the GI50 (SK-MEL-28) was 67.1 µM (inactive) and the GI50 (MDA-N) was 40.3 µM (inactive). For the same compound, the GI50 (NCI-H23) was 55.2 µM (inactive), the GI50 (SNB-19) was 52.4 µM (inactive) and the GI50 (BT-549) was 42.1 µM (inactive). The GI50 (DU-145) was 91.8 µM (inactive) and the GI50 (OVCAR-4) was 38.1 µM (inactive).
In the case of O=[N+]([O-])c1ccc(/C=C/c2ccc(/C=C/c3ccc([N+](=O)[O-])cc3[N+](=O)[O-])cc2)c([N+](=O)[O-])c1, the GI50 (NCI-H226) was > 100 µM (inactive), the GI50 (RPMI-8226) was > 100 µM (inactive) and the GI50 (SK-OV-3) was > 100 µM (inactive). For the same compound, the GI50 (HCC 2998) was > 100 µM (inactive), the GI50 (786-0) was > 100 µM (inactive) and the GI50 (ACHN) was > 100 µM (inactive). For the same compound, the GI50 (DLD-1) was > 100 µM (inactive), the GI50 (IGROV-1) was > 100 µM (inactive) and the GI50 (SK-MEL-5) was > 100 µM (inactive). For the same compound, the GI50 (OVCAR-5) was > 100 µM (inactive), the GI50 (CAKI-1) was > 100 µM (inactive) and the GI50 (MOLT-4) was > 100 µM (inactive). For the same compound, the GI50 (HT-29) was > 100 µM (inactive), the GI50 (U-251) was > 100 µM (inactive) and the GI50 (OVCAR-3) was > 100 µM (inactive). For the same compound, the GI50 (XF498) was > 100 µM (inactive), the GI50 (RXF 393) was > 100 µM (inactive) and the GI50 (UO-31) was > 100 µM (inactive). The GI50 (SNB-78) was > 100 µM (inactive), the GI50 (M14) was > 100 µM (inactive) and the GI50 (K562) was > 100 µM (inactive). For the same compound, the GI50 (DMS-273) was > 100 µM (inactive), the GI50 (DMS-114) was > 100 µM (inactive) and the GI50 (SNB-75) was > 100 µM (inactive). The GI50 (OVCAR-8) was > 100 µM (inactive), the GI50 (HOP-62) was > 100 µM (inactive) and the GI50 (Malme-3M) was > 100 µM (inactive). The GI50 (LXFL 529) was > 100 µM (inactive), the GI50 (HCT-15) was greater than 100 µM and the GI50 (HCT-116) was > 100 µM (inactive). The GI50 (KM-20L2) was > 100 µM (inactive), the GI50 (SK-MEL-2) was > 100 µM (inactive) and the GI50 (SF-295) was > 100 µM (inactive). The GI50 (A498) was > 100 µM (inactive), the GI50 (A549) was > 100 µM (inactive) and the GI50 (SW-620) was > 100 µM (inactive). The GI50 (KM12) was > 100 µM (inactive), the GI50 (HL-60) was > 100 µM (inactive) and the GI50 (NCI-H460) was > 100 µM (inactive). The GI50 (UACC-62) was > 100 µM (inactive), the GI50 (TK-10) was > 100 µM (inactive) and the GI50 (SF-539) was > 100 µM (inactive). The GI50 (CCRF-CEM) was > 100 µM (inactive), the GI50 (EKVX) was > 100 µM (inactive) and the GI50 (UACC-257) was > 100 µM (inactive). The GI50 (SK-MEL-28) was > 100 µM (inactive), the GI50 (NCI-H23) was > 100 µM (inactive) and the GI50 (OVCAR-4) was > 100 µM (inactive).
